Reference: PMC5693660 (Amino acids, 2017)
pIC50: −log10 of the molar value.

Biological target: T1, deoxyhypusine synthase (DHS) (Homo sapiens, UniProt P49366)
T1 sequence (P49366 1-369): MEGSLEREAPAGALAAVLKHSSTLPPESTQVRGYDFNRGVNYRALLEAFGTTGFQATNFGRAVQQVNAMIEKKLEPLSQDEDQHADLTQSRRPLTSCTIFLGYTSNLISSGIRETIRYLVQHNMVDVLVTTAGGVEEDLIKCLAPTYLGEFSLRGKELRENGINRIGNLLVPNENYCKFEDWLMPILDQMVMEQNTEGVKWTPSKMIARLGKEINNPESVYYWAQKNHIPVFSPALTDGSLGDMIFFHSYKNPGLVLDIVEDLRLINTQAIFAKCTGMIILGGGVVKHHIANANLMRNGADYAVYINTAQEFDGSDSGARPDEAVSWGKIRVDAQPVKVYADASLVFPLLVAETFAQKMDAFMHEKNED
Format: biochemical

pIC50: > 6.00
SMILES: N=C(N)NCCCCCCCN [GC7]
